Laboratory results reported in patent publication US9198420B2, “Rodenticidal norbormide analogues” (priority 2012, dated 2015).
Read-outs that look alike come from different tables or passages of the source.

Legend:
[1] = tested on: Sprague Dawley rats; assay: In vivo lethality, oral gavage; design: species or system rat (Sprague Dawley); details: rat, n = 2
Description: Sprague Dawley rats (150-200 g) were used to appraise the rodenticidal activity of the compounds put forward for in vivo evaluation. Briefly, prior to administration the compounds were dissolved in 0.2 M hydrochloric acid (5% DMSO overall), to the desired dose, and without delay either injected intravenously, via the tail, or orally gavaged. All treated animals were housed in a quiet room and monitored every minute (i.v) or every 15 min (oral) to verify early signs of toxicity.

[2] = tested on: rat caudal artery; assay: Rat caudal artery ring contractile force (vasoconstrictory activity); design: species or system rat (male Wistar)
Description: Male Wistar rats (150-250 g) were obtained from Charles River Italia (Milano, Italy) and killed by decapitation. Ventral caudal artery was isolated, placed in Tyrode solution at room temperature and cleaned of extraneous fatty and connective tissue under a dissection microscope. All vessels were cut into rings 2 mm long, mounted on a custom-built plexiglass support by means of two intraluminal tungsten wires and placed in 20 mL double-jacketed organ baths filled with Tyrode solution of the following composition (mM): NaCl 125, KCl 5, CaCl2 2.7, MgSO4 1, KH2PO4 1.2, NaHCO3 25 and glucose 11, maintained at 37° C., pH 7.35, bubbled with 95% O2 and […]. The endothelium was removed by gently rubbing the lumen of the rings with a very thin rough-surfaced tungsten wire (caudal artery). The mechanical activity of the rings was detected by means of an isometric force transducer (Ugo Basile, Comerio, Italy) coupled to a pen recorder (Ugo Basile, Comerio, Italy). Rings were passively stretched to impose a resting tension (2 g) and were allowed to equilibrate for 60 min. After equilibration, each ring was repeatedly simulated with both KCl (90 mM) and phenylephrine (10 μM) until reproducible responses were obtained. To verify the absence of the endothelium, rings contracted with 1 μM phenylephrine were exposed to […] carbamylcholine. […] Each compound was tested for the vasoconstrictor activity at a concentration of 50 μM, which has been previously reported to be the one evoking the maximal response to norbormide. The contractile responses to the compounds were expressed as percent of the 90 mM KCl response.

[3] = Table 7, compounds of formula (V)
[4] = Table 1, read-out: Vasoconstriction: maximum contractile effect as a % of 90 mM KCl contraction

Compound | Vasoconstriction: maximum contractile effect as a % of 90 mM KCl contraction ([2]; Table 1, compound at 50 μM) | also measured
CCCCCCCC(=O)NCCN1C(=O)C2C3C=C(C(O)(c4ccccc4)c4ccccn4)C(C3=C(c3ccccc3)c3ccccn3)C2C1=O (stereo not drawn) [Compound 364, 5-(α-Hydroxy-α-2-pyridylbenzyl)-N-2′-octanamidoethyl-7-(α-2-pyridylbenzylidene)-5-norbornene-2,3-dicarboximide] |  | In vivo lethality (oral) ([1]; 20 mg/Kg): yes^h,i; In vivo lethality (oral) ([1]; 40 mg/Kg): yes^h,i; Vasoconstriction: maximum contractile effect as a % of 90 mM KCl contraction ([2]; Table 2, compound at 50 μM): 21%; Vasoconstriction: maximum contractile effect as a % of 90 mM KCl contraction ([2]; Table 4, pre-cleavage, n = 3): 21%
CCCCCCCCOC(=O)CN1C(=O)C2C3C=C(C(O)(c4ccccc4)c4ccccn4)C(C3=C(c3ccccc3)c3ccccn3)C2C1=O (stereo not drawn) [Compound 369, 5-(α-Hydroxy-α-2-pyridylbenzyl)-N-octyloxycarbonylmethyl-7-(α-2-pyridylbenzylidene)-5-norbornene-2,3-dicarboximide] |  | In vivo lethality (oral) ([1]; 40 mg/Kg): no^h; Emax ([2]; Table 3, read-out: Vasoconstriction: maximum contractile effect as a % of 90 mM KCl contraction): 0%; Vasoconstriction: maximum contractile effect as a % of 90 mM KCl contraction ([2]; Table 4, pre-cleavage, n = 3): 0%
COc1ccc(C(=O)OCCN2C(=O)C3C4C=C(C(O)(c5ccccc5)c5ccccn5)C(C4=C(c4ccccc4)c4ccccn4)C3C2=O)cc1 (stereo not drawn) [Compound 116, 5-(α-Hydroxy-α-2-pyridylbenzyl)-N-2′-p-methoxybenzoyloxyethyl-7-(α-2-pyridylbenzylidene)-5-norbornene-2,3-dicarboximide] | ≧132% | 
CC(O)CN1C(=O)C2C3C=C(C(O)(c4ccccc4)c4ccccn4)C(C3=C(c3ccccc3)c3ccccn3)C2C1=O (stereo not drawn) [Compound 103, N-2′-Hydroxypropyl-5-(α-hydroxy-α-2-pyridylbenzyl)-7-(α-2-pyridylbenzylidene)-5-norbornene-2,3-dicarboximide] |  | Vasoconstriction: maximum contractile effect as a % of 90 mM KCl contraction [2, 3]: 67%; Vasoconstriction: maximum contractile effect as a % of 90 mM KCl contraction ([2]; n = 3, Table 8): 67%
COc1cccc(C(=O)OCCN2C(=O)C3C4C=C(C(O)(c5ccccc5)c5ccccn5)C(C4=C(c4ccccc4)c4ccccn4)C3C2=O)c1 (stereo not drawn) [Compound 115, 5-(α-Hydroxy-α-2-pyridylbenzyl)-N-2′-m-methoxybenzoyloxyethyl-7-(α-2-pyridylbenzylidene)-5-norbornene-2,3-dicarboximide] | 52% | 
COc1cccc(C=CC(=O)OCCN2C(=O)C3C4C=C(C(O)(c5ccccc5)c5ccccn5)C(C4=C(c4ccccc4)c4ccccn4)C3C2=O)c1 (stereo not drawn) [Compound 125, 5-(α-1-hydroxy-α-2-pyridylbenzyl)-N-[2′-(3″-methoxycinnamoyloxy)ethyl]-7-(α-2-pyridylbenzylidene)-5-norbornene-2,3-dicarboximide] | 80% | 
O=C1C2C3C=C(C(O)(c4ccccc4)c4ccccn4)C(C3=C(c3ccccc3)c3ccccn3)C2C(=O)N1CCCCO (stereo not drawn) [Compound 105, N-4′-Hydroxybutyl-5-(α-hydroxy-α-2-pyridylbenzyl)-7-(α-2-pyridylbenzylidene)-5-norbornene-2,3-dicarboximide] |  | Vasoconstriction: maximum contractile effect as a % of 90 mM KCl contraction [2, 3]: 100%; Vasoconstriction: maximum contractile effect as a % of 90 mM KCl contraction ([2]; n = 3, Table 8): 100%
O=C(OCCN1C(=O)C2C3C=C(C(O)(c4ccccc4)c4ccccn4)C(C3=C(c3ccccc3)c3ccccn3)C2C1=O)c1ccccc1 (stereo not drawn) [Compound 113, N-2′-Benzoyloxyethyl-5-(α-hydroxy-α-2-pyridylbenzyl)-7-(α-2-pyridylbenzylidene)-5-norbornene-2,3-dicarboximide] | ≧132% | 
O=C(CCc1ccccc1)OCCN1C(=O)C2C3C=C(C(O)(c4ccccc4)c4ccccn4)C(C3=C(c3ccccc3)c3ccccn3)C2C1=O (stereo not drawn) [Compound 119, N-2′-Dihydrocinnamoyloxyethyl-5-(α-hydroxy-α-2-pyridylbenzyl)-7-(α-2-pyridylbenzylidene)-5-norbornene-2,3-dicarboximide] | ≧132% | 
O=C(C=Cc1ccc2ccccc2c1)OCCN1C(=O)C2C3C=C(C(O)(c4ccccc4)c4ccccn4)C(C3=C(c3ccccc3)c3ccccn3)C2C1=O (stereo not drawn) [Compound 188, 5-(α-Hydroxy-α-2-pyridylbenzyl)-N-[2′-(2″-naphthylacryloyloxy)ethyl]-7-(α-2-pyridylbenzylidene)-5-norbornene-2,3-dicarboximide] | 0% | 
COc1ccccc1C(=O)OCCN1C(=O)C2C3C=C(C(O)(c4ccccc4)c4ccccn4)C(C3=C(c3ccccc3)c3ccccn3)C2C1=O (stereo not drawn) [Compound 114, 5-(α-Hydroxy-α-2-pyridylbenzyl)-N-2′-o-methoxybenzoyloxyethyl-7-(α-2-pyridylbenzylidene)-5-norbornene-2,3-dicarboximide] | ≧132% | 
O=C(CCC(=O)Oc1ccccc1)OCCN1C(=O)C2C3C=C(C(O)(c4ccccc4)c4ccccn4)C(C3=C(c3ccccc3)c3ccccn3)C2C1=O (stereo not drawn) [Compound 204, 5-(α-Hydroxy-α-2-pyridylbenzyl)-N-2′-(monophenyl)succinoyloxyethyl-7-(α-2-pyridylbenzylidene)-5-norbornene-2,3-dicarboximide] | 0% | 
COc1ccc(C=CC(=O)OCCN2C(=O)C3C4C=C(C(O)(c5ccccc5)c5ccccn5)C(C4=C(c4ccccc4)c4ccccn4)C3C2=O)cc1OC (stereo not drawn) [Compound 132] | 120% | 
O=C(/C=C/C=C/c1ccccc1)OCCN1C(=O)C2C3C=C(C(O)(c4ccccc4)c4ccccn4)C(C3=C(c3ccccc3)c3ccccn3)C2C1=O (stereo not drawn) [Compound 187, 5-(α-Hydroxy-α-2-pyridylbenzyl)-N-[2′-(5″-phenyl-2″E,4″E-pentadienoyloxy)ethyl]-7-(α-2-pyridylbenzylidene)-5-norbornene-2,3-dicarboximide] | 0% | 
CN(C)c1ccc(C=CC(=O)OCCN2C(=O)C3C4C=C(C(O)(c5ccccc5)c5ccccn5)C(C4=C(c4ccccc4)c4ccccn4)C3C2=O)cc1 (stereo not drawn) [Compound 131] | 30% | 
O=C(OCOCCN1C(=O)C2C3C=C(C(O)(c4ccccc4)c4ccccn4)C(C3=C(c3ccccc3)c3ccccn3)C2C1=O)C(c1ccccc1)c1ccccc1 (stereo not drawn) [Compound 201, N-[2′-(Diphenylacetyloxymethyloxy)ethyl]-5-(α-hydroxy-α-2-pyridylbenzyl)-7-(α-2-pyridylbenzylidene)-5-norbornene-2,3-dicarboximide] |  | Emax [2, 4]: ≥ 132%
O=C(Cc1ccccc1)OCCN1C(=O)C2C3C=C(C(O)(c4ccccc4)c4ccccn4)C(C3=C(c3ccccc3)c3ccccn3)C2C1=O (stereo not drawn) [Compound 117, 5-(α-Hydroxy-α-2-pyridylbenzyl)-N-2′-phenylacetyloxyethyl-7-(α-2-pyridylbenzylidene)-5-norbornene-2,3-dicarboximide] | ≧132% | 
Cc1ccc(C=CC(=O)OCCN2C(=O)C3C4C=C(C(O)(c5ccccc5)c5ccccn5)C(C4=C(c4ccccc4)c4ccccn4)C3C2=O)cc1 (stereo not drawn) [Compound 128] | 42% | 
CC(C)(C)C(=O)OCCN1C(=O)C2C3C=C(C(O)(c4ccccc4)c4ccccn4)C(C3=C(c3ccccc3)c3ccccn3)C2C1=O (stereo not drawn) [Compound 109, 5-(α-Hydroxy-α-2-pyridylbenzyl)-N-2′-pivaloyloxyethyl-7-(α-2-pyridylbenzylidene)-5-norbornene-2,3-dicarboximide] | ≧132% | 
CCCC(=O)OCCN1C(=O)C2C3C=C(C(O)(c4ccccc4)c4ccccn4)C(C3=C(c3ccccc3)c3ccccn3)C2C1=O (stereo not drawn) [Compound 110, N-2′-Butanoyloxyethyl-5-(α-hydroxy-α-2-pyridylbenzyl)-7-(α-2-pyridylbenzylidene)-5-norbornene-2,3-dicarboximide] | ≧132% | 
CCCCCCCCCCCC(=O)OCN1C(=O)C2C3C=C(C(O)(c4ccccc4)c4ccccn4)C(C3=C(c3ccccc3)c3ccccn3)C2C1=O (stereo not drawn) [Compound 11, N-Dodecanoyloxymethyl-5-(α-hydroxy-α-2-pyridylbenzyl)-7-(α-2-pyridylbenzylidene)-5-norbornene-2,3-dicarboximide] |  | Emax [2, 4]: 0%; Vasoconstriction: maximum contractile effect as a % of 90 mM KCl contraction ([2]; Table 4, pre-cleavage, n = 3): 0%
O=C(C=Cc1ccccc1)NCCN1C(=O)C2C3C=C(C(O)(c4ccccc4)c4ccccn4)C(C3=C(c3ccccc3)c3ccccn3)C2C1=O (stereo not drawn) [Compound 365, N-2′-Cinnamamidoethyl-5-(α-hydroxy-α-2-pyridylbenzyl)-7-(α-2-pyridylbenzylidene)-5-norbornene-2,3-dicarboximide] |  | Vasoconstriction: maximum contractile effect as a % of 90 mM KCl contraction ([2]; Table 2, compound at 50 μM): 43%
